Assay results published in publication PMC8896685 (PLoS ONE, 2022).
Numbered stars: 1 amine (or outer) side, 2 acyl side, 3 side chain; on linkers, the order of the positions; unused ones are H or OH. Square brackets hold non-standard residues; d marks the D form. Side chains are listed from the residue outwards. Peptide text beside a SMILES is read from it. * marks the point of attachment. C18 diacid = O=C(O)CCCCCCCCCCCCCCCCC(=O)*; γGlu = O=C(O)[C@H](CCC(=O)[*:2])N[*:1]; Desaminohistidyl = O=C(CCc1c[nH]cn1)*; Ac4c = NC1(C(=O)O)CCC1; AEEA = NCCOCCOCC(=O)O; Aib = CC(C)(N)C(=O)O

Legend:
Human GLP-1R = Human GLP-1R (Homo sapiens, UniProt P43220); experiment: Receptor binding, SPA competitive binding assay; details: for IC50: SPA competitive binding on BHK cell membranes, [125I]-GLP-1(7–36)-NH2 tracer, 1% species specific plasma, 2 h 30°C, value (95% CI)
Human GLP-1R, sequence (P43220 24-463): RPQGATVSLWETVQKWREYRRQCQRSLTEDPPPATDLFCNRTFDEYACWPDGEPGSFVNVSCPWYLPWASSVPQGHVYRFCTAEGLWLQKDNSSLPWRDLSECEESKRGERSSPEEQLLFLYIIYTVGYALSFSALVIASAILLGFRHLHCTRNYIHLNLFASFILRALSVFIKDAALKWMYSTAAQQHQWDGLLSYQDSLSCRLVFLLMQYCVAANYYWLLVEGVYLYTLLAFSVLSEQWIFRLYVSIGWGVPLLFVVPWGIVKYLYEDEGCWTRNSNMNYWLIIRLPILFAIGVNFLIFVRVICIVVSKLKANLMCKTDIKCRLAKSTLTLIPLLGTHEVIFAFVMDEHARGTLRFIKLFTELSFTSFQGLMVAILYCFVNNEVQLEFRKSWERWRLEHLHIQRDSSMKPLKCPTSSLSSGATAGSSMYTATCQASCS
Method: (§1) The binding assay was performed on cell membranes in the presence of 1% (v/v) species-specific heparin-treated pooled plasma (Bioreclamation IVT, Westbury, NY) diluted in assay buffer (50 mM HEPES supplemented with 5 mM EGTA, 5 mM MgCl2, and 0.005% (v/v) Tween 20, pH7.4). […] Cells stably expressing an individual receptor of interest were grown at 5% CO2, 37°C in DMEM (supplemented with 10% FCS, 0.5 mg/ml G418 and 0.3 mg/ml hygromycin). Membrane preparations were made from cells harvested at approximately 80% confluence, washed and homogenized in 20 mM HEPES with 0.1 mM EDTA, pH 7.4. Protein concentration was determined, and the membranes were stored at -80°C until use. The membrane binding assay was performed in a 96-well OptiPlate (PerkinElmer) in a total volume of 200 μl. Test compounds were dissolved in 80% DMSO and further diluted in assay buffer. 50 μl of diluted plasma was added to the assay plate wells followed by addition of test compounds (25 μl), cell membranes (50 μl, 0.06 mg/ml), SPA beads (20 mg/ml in assay buffer) and radioligand (60,000 cpm/well, corresponding to 0.06 nM; 2200 Ci/mmol. Each assay plate was incubated for 2 h at 30°C, centrifuged at 1500 rpm for 10 minutes and counted in a TopCount NXT instrument (PerkinElmer).
(§2) For the receptor binding assays, logIC50 values were calculated using non-linear regression analysis. The error estimation was reported as the 95% confidence interval. […] The calculations were performed in GraphPad Prism 6.4 (GraphPad, San Diego, CA) and error estimation was expressed as the 95% confidence interval. […] Averages, error estimation, ratios and plasma shifts were all calculated on logIC50 or logEC50 values and transformed to the anti-log values for reporting purposes.

Mouse GLP-1R = target: T1, Mouse GLP-1R (Mus musculus, UniProt O35659); experiment: Receptor binding, SPA competitive binding assay; details: SPA competitive binding on BHK cell membranes, [125I]-GLP-1(7–36)-NH2 tracer, 1% species specific plasma, 2 h 30°C; value (95% CI)
T1 construct: a plasmid encoding either the glucagon receptor or the GLP-1 receptor from the relevant species; expressed in transfected cells
T1 sequence (O35659 22-463): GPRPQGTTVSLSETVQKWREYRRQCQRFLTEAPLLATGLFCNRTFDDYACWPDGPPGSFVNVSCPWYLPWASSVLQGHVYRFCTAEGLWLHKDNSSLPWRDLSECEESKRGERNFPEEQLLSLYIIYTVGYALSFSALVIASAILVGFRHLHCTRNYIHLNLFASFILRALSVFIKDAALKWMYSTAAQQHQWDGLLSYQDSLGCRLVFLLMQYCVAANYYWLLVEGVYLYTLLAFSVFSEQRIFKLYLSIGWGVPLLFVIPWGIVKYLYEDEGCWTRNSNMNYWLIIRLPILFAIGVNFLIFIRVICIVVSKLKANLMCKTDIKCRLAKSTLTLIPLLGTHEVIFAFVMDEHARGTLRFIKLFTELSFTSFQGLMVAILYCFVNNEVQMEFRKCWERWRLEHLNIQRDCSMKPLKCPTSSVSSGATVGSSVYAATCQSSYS
Method: as §1, §2

DIO mice = experiment: Subchronic effect on body weight, body composition and food intake in DIO mice; format: in vivo, mouse
From the text: Male C57Bl/6J mice were purchased from Jackson Lab (Bar Harbour, ME) or Taconic, (Denmark). Male Sprague Dawley rats were purchased from Taconic (Denmark). Lean animals were fed regular chow diet (Altromin 1324, Brogaarden, Denmark). Obese animals were fed a high-fat diet, 45% kcal from fat (D12492, Research Diets, New Brunswick, NJ) from the age of 4–6 weeks in order to obtain a diet induced obese (DIO) phenotype. Animals were housed under temperature and humidity-controlled conditions in a 12:12 hr light:dark cycle (lights on at 6 a.m.). Rats were housed three per cage during high fat feeding and were single housed five weeks prior to study. Mice were single housed, two per cage, with a partitioning wall where possible. All animals had ad libitum access to diet and water, except when fasted prior to experimental procedures. Animals were acclimatized to study conditions (energy expenditure cages, daily mock handling etc) at least one week prior to first dose. […] At the time of study, animals were 20–30 weeks old with a body weight of 45–50 g (DIO mice) or approximately 600 g (DIO rats).
DIO mice received s.c. injections once daily for 4–5 weeks. Animals were dosed at different times of day to allow for assessment of glucose tolerance and other metabolic parameters at same time of day but at different time points in relation to dosing. […] Body composition was assessed in conscious animals by Magnetic Resonance (MR) scanning prior to initiation of treatment and at the end of the treatment period. Steady-state plasma parameters were assessed in non-fasted animals. Additional DIO mice (n = 4) were included for verification of 24-h peptide exposure in steady state. The mice received s.c. doses daily for 2 weeks (13 days) with 3 nmol/kg NN1177; 5 nmol/kg NN1151 or 5 nmol/kg NN1359, where after plasma sampled after t = 5 h (NN1177) or 6 h (NN1151, NN1359), 10 h (all co-agonists) and 24 h (all co-agonists) post-dosing was analysed for exposure.
Analogues were tested for subchronic effect in two different set-ups. […] The Cmax and Cmin animals were included in separate treatment groups and evaluated head-to-head for glucose tolerance and additional metabolic parameters at the end of the treatment period. […] IPGTT was performed as described above, but additionally blood was sampled from vena facialis of conscious animals at t = 210 min relative to the administration of glucose for exposure analysis.
IPGTT was performed as described above.
All in vivo data are presented as mean ±SEM. […] For the comparison of NN1177, NN1151 and NN1359 on glucose tolerance, vehicle-subtracted values were used to enable comparison across studies.

Compound	IC50 (Human GLP-1R) [nM]	IC50 (Mouse GLP-1R) [nM]	Body weight loss (DIO mice; 1–30 nmol/kg s.c. once daily, 4 weeks, plateau during last weeks)	Effect on body weight (DIO mice; 1 nmol/kg s.c. once daily, 4 weeks)	Effect on body weight / tolerated weight loss (DIO mice; 10 and 30 nmol/kg s.c. once daily, maximum ethically tolerated weight loss reached)	Binding affinity to GLP-1 receptors relative to glucagon receptors (Human GLP-1R; across human, mouse and rat receptor binding assays, 1% plasma)	Body weight reduction (DIO mice; 3–5 nmol/kg s.c. once daily, 5 weeks)	Body weight reduction (DIO mice; 5 nmol/kg s.c. once daily, 4–5 weeks, p<0.001)
CC[C@H](C)[C@H](NC(=O)[C@H](Cc1ccccc1)NC(=O)[C@H](CCC(=O)O)NC(=O)[C@H](CCCNC(=N)N)NC(=O)[C@H](C)NC(=O)[C@H](C)NC(=O)[C@H](CCC(N)=O)NC(=O)[C@H](CCC(=O)O)NC(=O)[C@H](CCC(=O)O)NC(=O)[C@H](CC(C)C)NC(=O)[C@H](Cc1ccc(O)cc1)NC(=O)[C@H](CCCCN)NC(=O)[C@H](CO)NC(=O)[C@@H](NC(=O)[C@H](CC(=O)O)NC(=O)[C@H](CO)NC(=O)[C@@H](NC(=O)[C@H](Cc1ccccc1)NC(=O)[C@@H](NC(=O)CNC(=O)[C@H](Cc1c[nH]cn1)NC(=O)C(C)(C)NC(=O)CCc1c[nH]cn1)[C@@H](C)O)[C@@H](C)O)C(C)C)C(=O)N[C@@H](C)C(=O)N[C@@H](Cc1c[nH]c2ccccc12)C(=O)N[C@@H](CC(C)C)C(=O)N[C@@H](CC(C)C)C(=O)N[C@@H](CCCCNC(=O)COCCOCCNC(=O)COCCOCCNC(=O)CC[C@H](NC(=O)CC[C@H](NC(=O)CCCCCCCCCCCCCCCCC(=O)O)C(=O)O)C(=O)O)C(=O)N[C@H](C(N)=O)[C@@H](C)O [NN1359] (Desaminohistidyl-[Aib]HGTFTSDVSKYLEEQAAREFIAWLLK([AEEA-AEEA-γGlu-γGlu-C18 diacid])T-NH2)	0.84	0.37	10–30%	–	–	–	–	–
CC(C)C[C@H](NC(=O)[C@H](CC(=O)O)NC(=O)[C@H](CC(C)C)NC(=O)[C@H](Cc1ccc(O)cc1)NC(=O)[C@H](CCCCN)NC(=O)[C@H](CO)NC(=O)[C@H](CC(C)C)NC(=O)[C@H](CC(=O)O)NC(=O)[C@H](CO)NC(=O)[C@@H](NC(=O)[C@H](Cc1ccccc1)NC(=O)[C@@H](NC(=O)CNC(=O)[C@H](CCC(N)=O)NC(=O)C1(NC(=O)[C@@H](N)Cc2c[nH]cn2)CCC1)[C@@H](C)O)[C@@H](C)O)C(=O)N[C@@H](CCCNC(=N)N)C(=O)N[C@@H](CCCNC(=N)N)C(=O)N[C@@H](C)C(=O)N[C@@H](CCCNC(=N)N)C(=O)N[C@@H](CC(=O)O)C(=O)N[C@@H](Cc1ccccc1)C(=O)N[C@H](C(=O)N[C@@H](CCC(N)=O)C(=O)N[C@@H](Cc1c[nH]c2ccccc12)C(=O)N[C@@H](CC(C)C)C(=O)N[C@@H](CC(C)C)C(=O)N[C@@H](CCCCNC(=O)CC[C@H](NC(=O)CC[C@H](NC(=O)COCCOCCNC(=O)COCCOCCNC(=O)CC[C@H](NC(=O)CC[C@H](NC(=O)CCCCCCCCCCCCCCCCC(=O)O)C(=O)O)C(=O)O)C(=O)O)C(=O)O)C(=O)N[C@H](C(N)=O)[C@@H](C)O)C(C)C [NN1151] (H-H[Ac4c]QGTFTSDLSKYLDLRRARDFVQWLLK([γGlu-γGlu-AEEA-AEEA-γGlu-γGlu-C18 diacid])T-NH2)	1.52	1.87	–	No effect	majority of mice had to be terminated prematurely	–	–	–
CC(C)C[C@H](NC(=O)[C@H](Cc1ccc(O)cc1)NC(=O)[C@H](CCCCN)NC(=O)[C@H](CO)NC(=O)[C@H](CC(C)C)NC(=O)[C@H](CC(=O)O)NC(=O)[C@H](CO)NC(=O)[C@@H](NC(=O)[C@H](Cc1ccccc1)NC(=O)[C@@H](NC(=O)CNC(=O)[C@H](CCC(N)=O)NC(=O)C(C)(C)NC(=O)[C@@H](N)Cc1c[nH]cn1)[C@@H](C)O)[C@@H](C)O)C(=O)N[C@@H](CCC(=O)O)C(=O)N[C@@H](CO)C(=O)N[C@@H](CCCCN)C(=O)N[C@@H](CCCNC(=N)N)C(=O)N[C@@H](C)C(=O)N[C@@H](CCCNC(=N)N)C(=O)N[C@@H](CCC(=O)O)C(=O)N[C@@H](Cc1ccccc1)C(=O)N[C@H](C(=O)N[C@@H](CCC(N)=O)C(=O)N[C@@H](Cc1c[nH]c2ccccc12)C(=O)N[C@@H](CC(C)C)C(=O)N[C@@H](CC(C)C)C(=O)N[C@@H](CCCCNC(=O)CC[C@H](NC(=O)CC[C@H](NC(=O)[C@H](CO)NC(=O)[C@H](CCC(=O)O)NC(=O)[C@H](CO)NC(=O)CC[C@H](NC(=O)CC[C@H](NC(=O)CCCCCCCCCCCCCCCCC(=O)O)C(=O)O)C(=O)O)C(=O)O)C(=O)O)C(=O)N[C@H](C(N)=O)[C@@H](C)O)C(C)C [NN1177] (H-H[Aib]QGTFTSDLSKYLESKRAREFVQWLLK([γGlu-γGlu-Ser-Glu-Ser-γGlu-γGlu-C18 diacid])T-NH2)	0.64	0.11	–	–	–	two-to four-fold	22–33%	–
CC(C)C[C@H](NC(=O)[C@H](CC(C)C)NC(=O)[C@H](Cc1c[nH]c2ccccc12)NC(=O)[C@H](CCC(N)=O)NC(=O)[C@@H](NC(=O)[C@H](Cc1ccccc1)NC(=O)[C@H](CCC(=O)O)NC(=O)[C@H](CCCNC(=N)N)NC(=O)[C@H](C)NC(=O)[C@H](C)NC(=O)[C@H](CCCNC(=N)N)NC(=O)[C@H](CO)NC(=O)[C@H](CC(=O)O)NC(=O)[C@H](CC(C)C)NC(=O)[C@H](Cc1ccc(O)cc1)NC(=O)[C@H](CCCCN)NC(=O)[C@H](CO)NC(=O)[C@H](CC(C)C)NC(=O)[C@H](CC(=O)O)NC(=O)[C@H](CO)NC(=O)[C@@H](NC(=O)[C@H](Cc1ccccc1)NC(=O)[C@@H](NC(=O)CNC(=O)[C@H](CCC(=O)O)NC(=O)C(C)(C)NC(=O)[C@@H](N)Cc1c[nH]cn1)[C@@H](C)O)[C@@H](C)O)C(C)C)C(=O)N[C@@H](CC(N)=O)C(=O)N[C@@H](CCCCNC(=O)CC[C@H](NC(=O)CC[C@H](NC(=O)COCCOCCNC(=O)COCCOCCNC(=O)CC[C@H](NC(=O)CCCCCCCCCCCCCCCCC(=O)O)C(=O)O)C(=O)O)C(=O)O)C(N)=O [GLP-1 reference] (H-H[Aib]EGTFTSDLSKYLDSRAAREFVQWLLNK([γGlu-γGlu-AEEA-AEEA-γGlu-C18 diacid])-NH2)	–	–	–	–	–	–	–	10%-17%
